Reference: PMC9780203, “Synthesis, molecular docking, and in-vitro studies of pyrimidine-2-thione derivatives as antineoplastic agents via potential RAS/PI3K/Akt/JNK inhibition in breast carcinoma cells” (Scientific Reports, 2022)
“Also recorded” adds a separate entry of the source.

Experiments:
[1] = tested on: normal human amniotic WISH cells; experiment: MTT cell viability, normal WISH cells; assay type: cell-based; settings: 48 h, mean ± SE, read-out: IC50, normal cell line (WISH)
Experimental: (§1) 3-(4,5-dimethylthiazol-2-yl)-2,5-diphenyltetrazolium bromide (MTT) assay was used to measure cell viability according to a prior study. The cells were grown in 96-well plates at a density of 1 × 10^4 cells/well, treated for 48 h with varied 5a (0–200 µM) or the reference drug DOX (0–100 µM) dosages, and then exposed to analysis. The culture medium was taken out after 48 h of incubation, and the cells were given two gentle washes with 1× ice-cold phosphate-buffered saline (PBS). The MTT (10×) has been diluted to a 1× solution in the culture medium (1 volume 10× MTT in 9 volumes medium) and 200 μl was added to each well. The microplate has been kept in a cell culture incubator at 37 °C for 4 h. Afterthat, 180 μl of the MTT solution was taken out and 100 μl of DMSO was put to each well. The microplate was incubated for 15 min with shaking at room temperature. The absorbance of each well was ultimately measured at 630 nm using a Model 680 microplate reader (Bio-Rad, CA, USA)[33].

[2] = tested on: MCF-7 breast cancer cells; experiment: MTT cell viability, MCF-7; assay type: cell-based; settings: Homo sapiens, MCF7, 48 h, mean ± SE
Experimental: as §1

[3] = tested on: Akt; experiment: RT-PCR analysis of Akt gene expression in MCF-7; assay type: cell-based, human; settings: MCF-7, IC50 dose, 48 h, vs untreated cells
Experimental: (§2) The total RNA was isolated from the MCF-7 cells using Trizol (Cat# R2072, ZYMO […] CORP. USA) according to the manufacturer’s instructions. Its quantity and quality were assessed using a Beckman dual spectrophotometer. The cDNA was performed using a miScript Reverse Transcription Kit (QIAGEN) Kit (218061) and a miScript SYBR Green PCR Kit was used for mRNA detection with quantification (218073). Reverse transcription was running on a StepOne system (Applied Biosystems, Foster City, CA, USA) in a total volume of 10 μL containing 5 μL of the miScript RT enzyme and […]. Real-time PCR for mRNA was performed on the same system in a total volume of 20 μL containing 10 μL of a 2× QuantiTect® SYBR Green PCR Master Mix and 10 ng of the cDNA template. The PCR thermal cycling conditions for the mRNA were 2 min at 50 °C, 30 s at 95 °C, 40 cycles of 95 °C for 5 s, and 60 °C for 34 s. The expression of the mRNA target genes was normalized to the expression of human GAPDH quantified using the 2^−ΔΔCt method. Table 1 contains a list of the primers used in the research.

[4] = tested on: phospho-RAS-GRF1 (Ser916); experiment: Immunoblotting of p-RAS in MCF-7; assay type: cell-based, human; settings: MCF-7, IC50 dose, 48 h, western blot, vs untreated cells
Experimental: (§3) Western blot analysis was conducted according to[37]. The ReadyPrepTM protein extraction kit (total protein) provided by Bio-Rad Inc (Cat #163-2086) was used to isolate proteins according to the manufacturer’s instructions. The Bradford protein assay kit (SK3041) from Bio Basic Inc. (Markham Ontario L3R 8T4 Canada) was then used to perform quantitative protein analysis. Afterward, a 20 μg protein concentration of each sample was subjected to 12% sodium dodecyl sulfate–polyacrylamide gel electrophoresis (SDS-PAGE), followed by transfer to polyvinylidene fluoride (PVDF) membranes (BioRad). Polyacrylamide gels were performed using the TGX Stain-Free™ FastCast™ Acrylamide Kit (SDS-PAGE) provided by Bio-Rad Laboratories Inc. (Cat # 161-0181). The SDS-PAGE TGX Stain-Free FastCast was prepared according to the manufacturer's instructions. The membrane was blocked in tris-buffered saline with Tween 20 (TBST) buffer and 3% bovine serum albumin (BSA) for 1 h at room temperature followed by probing with primary antibodies against phospho-RAS-GRF1 (Ser916) (1: 1000, Cell Signaling Technology, #3321), phospho-SAPK/JNK (Thr183/Tyr185) (1:1000, Cell Signaling Technology, #9251), p53 (1:1000, Cell Signaling Technology, #9282) and β-actin (1:3000, Cell Signaling Technology, #8457). […]

[5] = tested on: PI3K; experiment: RT-PCR analysis of PI3K gene expression in MCF-7; assay type: cell-based, human; settings: MCF-7, IC50 dose, 48 h, vs untreated cells
Experimental: as §2

[6] = tested on: p21; experiment: RT-PCR analysis of p21 gene expression in MCF-7; assay type: cell-based, human; settings: MCF-7, IC50 dose, 48 h, vs untreated cells
Experimental: as §2

[7] = tested on: MCF-7 cells; experiment: Cell morphology by inverted light microscope; assay type: cell-based, human; settings: IC50 dose, 48 h
Experimental: Using an inverted light microscope (Olympus, USA), the morphological alterations of the treated and untreated cells were evaluated and documented after 48 h of incubation.

[8] = tested on: MDA-MB-231 breast cancer cells; experiment: MTT cell viability, MDA-MB-231; assay type: cell-based; settings: Homo sapiens, 48 h, mean ± SE
Experimental: as §1

[9] = tested on: Caco-2 colorectal cancer cells; experiment: MTT cell viability, Caco-2; assay type: cell-based; settings: Homo sapiens, 48 h, mean ± SE
Experimental: as §1

[10] = tested on: MCF-7 cells; experiment: Cell cycle analysis by flow cytometry (PI); assay type: cell-based, human; settings: MCF-7, IC50 dose, 48 h; untreated control 8.6%
Experimental: Using flow cytometry, cell cycle analysis was carried out via a documented method of[35] with a few changes. After trypsinization, the MCF-7 cells were centrifuged at 4500 rpm for 5 min, followed by two washings, resuspension in 1× PBS, fixation with ice-cold absolute ethanol, and incubation at 20 °C for 24 h. Following two PBS washes, the cells were then resuspended in (0.05 mg/mL) propidium iodide (PI)[32] solution containing 50 µL (0.2 mg/mL) of RNase A, and 0.1% v/v Triton X-100 in PBS. Then, the cells were incubated at room temperature for 30–60 min in the dark. Finally, the pellet was washed with 1⤫ PBS and resuspended in 300 µL 1× PBS, and subjected to analysis on Accuri C6 flow cytometer (Becton Dickinson, Franklin Lake, BD, USA) equipped with PE X FL2 channels.

[11] = tested on: phospho-SAPK/JNK (Thr183/Tyr185); experiment: Immunoblotting of p-JNK in MCF-7; assay type: cell-based, human; settings: MCF-7, IC50 dose, 48 h, western blot, vs untreated cells
Experimental: as §3

[12] = tested on: p53; experiment: Immunoblotting of p53 in MCF-7; assay type: cell-based, human; settings: MCF-7, IC50 dose, 48 h, immunoblot, vs untreated cells
Experimental: as §3

[13] = tested on: PANC-1 pancreatic cancer cells; experiment: MTT cell viability, PANC-1; assay type: cell-based; settings: Homo sapiens, 48 h, mean ± SE
Experimental: as §1

Row | Compound | melting point [°C] | IC50 [1] [µM] | IC50 [2] [µM] | mRNA transcript level of Akt [3] | levels of p-RAS proteins [4] | mRNA transcript level of PI3K [5] | p21 gene expression [6] | Morphological features of MCF-7 cells [7] | IC50 [8] [µM] | IC50 [9] [µM] | Percentage of cells at sub-G0/G1 [10] [%] | p-JNK protein expression [11] | p53 protein expression [12] | IC50 [13] [µM]
1 | COc1cc(/C=C/C(=O)C2=C(C)NC(=S)NC2c2cccs2)ccc1O (stereo not shown) [2b, [E]-3-(4-hydroxy-3-methoxyphenyl)-1-(6-methyl-4-(thiophen-2-yl)-2-thioxo-1,2,3,4-tetrahydropyrimidin-5-yl)prop-2-en-1-one] | 258 | – | – | – | – | – | – | – | – | – | – | – | – | –
2 | COc1cccc2c1C(=O)c1c(O)c3c(c(O)c1C2=O)C[C@@](O)(C(=O)CO)C[C@@H]3O[C@H]1C[C@H](N)[C@H](O)[C@H](C)O1 [DOX, Doxorubicin, reference compound] | – | 24.5 ± 2.1 | 2.26 ± 1.4 | – | – | – | – | – | – | – | – | – | – | –
3 | COc1cc(C2CC(C3=C(C)NC(=S)NC3c3ccc(N(C)C)cc3)=NN2c2ccccc2)ccc1O (stereo not shown) [compound 5a, 4-(4-(dimethylamino)phenyl)-5-(5-(4-hydroxy-3-methoxyphenyl)-1-phenyl-4,5-dihydro-1H-pyrazol-3-yl)-6-methyl-3,4-dihydropyrimidine-2(1H)-thione] | – | 180 ± 2.7 | 2.62 ± 1.6 | significantly reduced; also recorded: downregulated | significantly decreased | significantly reduced; also recorded: downregulated | significantly upregulated | detectable morphological signs of apoptosis | 6.78 ± 2.2 | 14.8 ± 2.5 | 48.5 | significant reduction | significant elevation | 23.6 ± 2.4
